Experimental data published in patent US20260250320A1, “LIPIDATED PEPTIDE INHIBITORS OF INTERLEUKIN-23 RECEPTOR” (Janssen Pharmaceutica NV, priority 2023, published 2026).
*1 amine or outer side, *2 acyl side, *3 side chain or, on linkers, in order; H or OH if unused. Where a SMILES comes first, the peptide text is derived from it. Bridges are numbered along the chain shown (N, C = ends). Side-chain parts run from the residue outwards. [ ]: non-standard residue; d: D form. The star is where a group is joined. Me3N+(CH2)2O(CH2)2O(CH2)2CO = C[N+](C)(C)CCOCCOCCC(=O)*; PEG12 = NCCOCCOCCOCCOCCOCCOCCOCCOCCOCCOCCOCCOCCC(=O)O; CH2CH2OCH2CH2OCH2CH2NMe3+ = C[N+](C)(C)CCOCCOCC*; Trp(7-Me) = Cc1cccc2c(C[C@H](N)C(=O)O)c[nH]c12; C20 diacid = O=C(O)CCCCCCCCCCCCCCCCCCC(=O)*; Abu(4-yl) = O=C([C@H](CC[*:3])N[*:1])[*:2]; C18 diacid = O=C(O)CCCCCCCCCCCCCCCCC(=O)*; γGlu = O=C(O)[C@H](CCC(=O)[*:2])N[*:1]; 2Nal = N[C@@H](Cc1ccc2ccccc2c1)C(=O)O; AEF = NCCOc1ccc(C[C@H](N)C(=O)O)cc1; X2 = C[N+](C)(C)C[C@@H](CC(=O)O)N*; 3Pal = N[C@@H](Cc1cccnc1)C(=O)O; Lys(Me) = CNCCCC[C@H](N)C(=O)O; NMeK = CN[C@@H](CCCCN)C(=O)O; Pen = CC(C)(S)[C@H](N)C(=O)O; Suc = O=C(CCC(=O)[*:2])[*:1]; Lauroyl = CCCCCCCCCCCC(=O)*; αMeC = C[C@](N)(CS)C(=O)O; Thp = NC1(C(=O)O)CCOCC1; X1 = C[N+](C)(C)CCCCC*; AEEA = NCCOCCOCC(=O)O; Sar = CNCC(=O)O

target: T1, IL-23R (Homo sapiens, UniProt Q5VWK5); test: IL23R Reporter Assay; format: cell-based; conditions: HEK293 cells containing IL-23R, IL-12Rβ1 and STAT-inducible firefly luciferase reporter; 10 ng/mL IL-23 (EC90); 5 h
T1 construct: HEK293 cells containing IL-23R, IL-12Rβ1 and a firefly luciferase reporter gene driven by a STAT-inducible promoter (Promega); host or cells: HEK293
T1 sequence (Q5VWK5 24-629): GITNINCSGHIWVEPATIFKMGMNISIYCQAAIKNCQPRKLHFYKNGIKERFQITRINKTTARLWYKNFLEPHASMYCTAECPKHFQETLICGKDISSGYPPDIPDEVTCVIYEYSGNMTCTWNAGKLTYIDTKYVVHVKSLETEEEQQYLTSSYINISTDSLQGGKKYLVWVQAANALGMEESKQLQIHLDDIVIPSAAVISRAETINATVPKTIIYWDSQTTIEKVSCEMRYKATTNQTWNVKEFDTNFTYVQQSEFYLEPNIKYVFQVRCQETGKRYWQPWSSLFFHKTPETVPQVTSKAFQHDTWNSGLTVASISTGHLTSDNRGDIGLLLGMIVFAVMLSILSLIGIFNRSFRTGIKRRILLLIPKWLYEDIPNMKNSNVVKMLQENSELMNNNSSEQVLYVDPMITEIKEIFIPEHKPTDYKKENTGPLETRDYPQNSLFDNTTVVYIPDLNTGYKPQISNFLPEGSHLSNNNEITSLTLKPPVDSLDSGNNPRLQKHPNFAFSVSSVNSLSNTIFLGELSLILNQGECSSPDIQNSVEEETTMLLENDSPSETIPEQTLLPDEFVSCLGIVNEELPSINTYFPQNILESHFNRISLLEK
Description: Compounds were serially diluted in 100% (v/v) DMSO) and plated using an Echo acoustic dispenser (Labcyte) into 1536-well non-treated black assay plates (Corning #9146). 3 μL of HEK293 cells containing IL-23R, IL-12Rβ1 and a firefly luciferase reporter gene driven by a STAT-inducible promoter (Promega) were added to the plates (4000 cells/well), followed by 3 μL of 10 ng/mL IL-23 (equivalent to EC90 concentration). After 5 h at 37° C., 5% CO2, 95% relative humidity, cells were placed at 20° C. and treated with BioGlo reagent (Promega) according to the Manufacturer's instructions. Luminescence was measured on a Pherastar FSX (BMG LabTech). Data were normalized to IL-23 treatment (0% inhibition) and 30 μM of control inhibitor (100% inhibition), and IC50 values were determined using a 4-parameter Hill equation.

Row | IC50 [nM] | SMILES
1 | 50 to 500 | CC(=O)N[C@H](CCCNC(=N)N)C(=O)N[C@@H]1C(=O)N[C@@H](CC(N)=O)C(=O)N[C@@H]([C@@H](C)O)C(=O)N[C@@H](Cc2c[nH]c3c(C)cccc23)C(=O)N[C@@H](CCCCNC(=O)CCC(=O)N[C@H](CC(=O)O)C[N+](C)(C)C)C(=O)N[C@H](C(=O)N[C@@H](Cc2ccc(OCCN)cc2)C(=O)N[C@@H](Cc2ccc3ccccc3c2)C(=O)NC2(C(=O)N[C@@H](CCC(=O)O)C(=O)N[C@@H](CC(N)=O)C(=O)N[C@@H](Cc3cccnc3)C(=O)N(C)[C@@H](CCCCNC(=O)COCCOCCNC(=O)COCCOCCNC(=O)CC[C@H](NC(=O)CCCCCCCCCCCCCCCCC(=O)O)C(=O)O)C(N)=O)CCOCC2)C(C)(C)SSC1(C)C [compound 29, MeCO-r-Pen(3)-N-T-7MeW-K(D)-Pen(3)-AEF-2Nal-THP-E-N-3Pya-NMeK(PEG2PEG2gEC18OH)-CONH2] (Ac-[dR][Pen]NT[Trp(7-Me)]K([Suc-X2])[Pen][AEF][2Nal][Thp]EN[3Pal][NMeK]([AEEA-AEEA-γGlu-C18 diacid])-NH2; disulfide 2-7)
2 | 50 to 500 | CC(=O)NCCCC[C@@H]1NC(=O)[C@H](Cc2c[nH]c3c(C)cccc23)NC(=O)[C@H]([C@@H](C)O)NC(=O)[C@H](CC(N)=O)NC(=O)[C@@H](NC(=O)[C@@H](CCCNC(=N)N)NC(C)=O)C(C)(C)SSC(C)(C)[C@@H](C(=O)N[C@@H](Cc2ccc(OCCCCC[N+](C)(C)C)cc2)C(=O)N[C@@H](Cc2ccc3ccccc3c2)C(=O)NC2(C(=O)N[C@@H](CCC(=O)O)C(=O)N[C@@H](CC(N)=O)C(=O)N[C@@H](Cc3cccnc3)C(=O)N(C)CC(=O)N[C@@H](CCCCNC(=O)COCCOCCNC(=O)COCCOCCNC(=O)CC[C@H](NC(=O)CCCCCCCCCCCCCCCCC(=O)O)C(=O)O)C(N)=O)CCOCC2)NC1=O [compound 69, MeCO-r-Pen(3)-N-T-7MeW-K(Ac)-Pen(3)-TMAPF-2Nal-THP-E-N-3Pya-Sar-K(PEG2PEG2C18OH)-CONH2] (Ac-[dR][Pen]NT[Trp(7-Me)]K(Ac)[Pen]Y(X1)[2Nal][Thp]EN[3Pal][Sar]K([AEEA-AEEA-γGlu-C18 diacid])-NH2; disulfide 2-7)
3 | ≥ 500 | CC(=O)N(C)CCCC[C@@H]1NC(=O)[C@H](Cc2c[nH]c3c(C)cccc23)NC(=O)[C@H]([C@@H](C)O)NC(=O)[C@H](CC(=O)N(C)C)NC(=O)[C@@H](NC(=O)[C@H](CCCCNC(=O)COCCOCCNC(=O)COCCOCCNC(=O)CC[C@H](NC(=O)CCCCCCCCCCCCCCCCC(=O)O)C(=O)O)NC(=O)CCOCCOCC[N+](C)(C)C)C(C)(C)SSC(C)(C)[C@@H](C(=O)N[C@@H](Cc2ccc(OCCN)cc2)C(=O)N[C@@H](Cc2ccc3ccccc3c2)C(=O)NC2(C(=O)N[C@@H](CCCCN(C)C(C)=O)C(=O)N[C@@H](CC(N)=O)C(=O)N[C@@H](Cc3cccnc3)C(=O)N(C)CC(N)=O)CCOCC2)NC1=O [compound 68, cPEG3aCO-K(PEG2PEG2gEC18OH)-Pen(3)-N(N(Me)2)-T-7MeW-K(NMeAc)-Pen(3)-AEF-2Nal-THP-K(NMeAc)-N-3Pya-Sar-CONH2] ({Me3N+(CH2)2O(CH2)2O(CH2)2CO}-K([AEEA-AEEA-γGlu-C18 diacid])[Pen]D(NMe2)T[Trp(7-Me)][Lys(Me)](Ac)[Pen][AEF][2Nal][Thp][Lys(Me)](Ac)N[3Pal][Sar]-NH2; disulfide 2-7)
4 | < 50 | CCCCCCCCCCCC(=O)N[C@@H](CCC(=O)NCCOCCOCC(=O)NCCOCCOCC(=O)N[C@H](CCCNC(=N)N)C(=O)N[C@H]1CCSC[C@@](C)(C(=O)N[C@@H](Cc2ccc(OCCN)cc2)C(=O)N[C@@H](Cc2ccc3ccccc3c2)C(=O)NC2(C(=O)N[C@@H](CCC(=O)O)C(=O)N[C@@H](CC(N)=O)C(=O)N[C@@H](Cc3cccnc3)C(=O)N(C)CC(N)=O)CCOCC2)NC(=O)[C@H](CCCCNC(C)=O)NC(=O)[C@H](Cc2c[nH]c3c(C)cccc23)NC(=O)[C@H]([C@@H](C)O)NC(=O)[C@H](CC(N)=O)NC1=O)C(=O)O [compound 6, C12gEPEG2PEG2CO-r-Abu(1)-N-T-7MeW-K(Ac)-aMeC(1)-AEF-2Nal-THP-E-N-ePya-Sar CONH2] ({Lauroyl-γGlu-AEEA-AEEA}-[dR][Abu(4-yl)]NT[Trp(7-Me)]K(Ac)[αMeC][AEF][2Nal][Thp]EN[3Pal][Sar]-NH2; thioether 2-7)
5 | < 50 | CC(=O)NCCCC[C@@H]1NC(=O)[C@H](Cc2c[nH]c3c(C)cccc23)NC(=O)[C@H]([C@@H](C)O)NC(=O)[C@H](CCCCNC(=O)CCC(=O)N[C@H](CC(=O)O)C[N+](C)(C)C)NC(=O)[C@@H](NC(=O)[C@@H](CCCNC(=N)N)NC(=O)COCCOCCNC(=O)COCCOCCNC(=O)CC[C@H](NC(=O)CCCCCCCCCCCCCCCCC(=O)O)C(=O)O)C(C)(C)SSC(C)(C)[C@@H](C(=O)N[C@@H](Cc2ccc(OCCN)cc2)C(=O)N[C@@H](Cc2ccc3ccccc3c2)C(=O)NC2(C(=O)N[C@@H](CCC(=O)O)C(=O)N[C@@H](CC(N)=O)C(=O)N[C@@H](Cc3cccnc3)C(=O)N(C)CC(N)=O)CCOCC2)NC1=O [compound 47, HOC18gEPEG2PEG2CO-r-Pen(3)-K(d)-T-7MeW-K(Ac)-Pen(3)-AEF-2Nal-THP-E-N-3Pya-Sar-CONH2] ({C18 diacid-γGlu-AEEA-AEEA}-[dR][Pen]K([Suc-X2])T[Trp(7-Me)]K(Ac)[Pen][AEF][2Nal][Thp]EN[3Pal][Sar]-NH2; disulfide 2-7)
6 | < 50 | CC(=O)N(C)CCCC[C@@H]1NC(=O)[C@H](Cc2c[nH]c3c(C)cccc23)NC(=O)[C@H]([C@@H](C)O)NC(=O)[C@H](CC(=O)N(C)C)NC(=O)[C@@H](NC(=O)COCCOCCNC(=O)COCCOCCNC(=O)CC[C@H](NC(=O)CCCCCCCCCCCCCCCCC(=O)O)C(=O)O)C(C)(C)SSC(C)(C)[C@@H](C(=O)N[C@@H](Cc2ccc(OCCOCCOCC[N+](C)(C)C)cc2)C(=O)N[C@@H](Cc2ccc3ccccc3c2)C(=O)NC2(C(=O)N[C@@H](CCCCN(C)C(C)=O)C(=O)N[C@@H](CC(N)=O)C(=O)N[C@@H](Cc3cccnc3)C(=O)N(C)CC(=O)N(C)C)CCOCC2)NC1=O [compound 155, HOC18gEPEG2PEG2CO-Pen(3)-N(N(Me)2)-T-7MeW-K(NMeAc)-Pen(3)-APEG3F-2Nal-THP-K(NMeAc)-N-3Pya-Sar-CON(Me)2] ({C18 diacid-γGlu-AEEA-AEEA}-[Pen]D(NMe2)T[Trp(7-Me)][Lys(Me)](Ac)[Pen]Y(CH2CH2OCH2CH2OCH2CH2NMe3+)[2Nal][Thp][Lys(Me)](Ac)N[3Pal][Sar]-NMe2; disulfide 1-6)
7 | < 50 | CCCCCCCCCCCCCC(=O)N(C)CC(=O)N[C@@H](CO)C(=O)N(C)CC(=O)N[C@@H](CO)C(=O)N(C)CC(=O)N[C@@H](CO)C(=O)N(C)CC(=O)NCCCC[C@H](NC(=O)CN(C)C(=O)[C@H](Cc1cccnc1)NC(=O)[C@H](CC(N)=O)NC(=O)[C@H](CCC(=O)O)NC(=O)C1(NC(=O)[C@H](Cc2ccc3ccccc3c2)NC(=O)[C@H](Cc2ccc(OCCN)cc2)NC(=O)C2NC(=O)[C@H](CCCCNC(C)=O)NC(=O)[C@H](Cc3c[nH]c4c(C)cccc34)NC(=O)[C@H]([C@@H](C)O)NC(=O)[C@H](CC(N)=O)NC(=O)[C@@H](NC(C)=O)C(C)(C)SSC2(C)C)CCOCC1)C(N)=O (stereo partly drawn) [compound 1, MeCO-Pen(3)-N-T-7MeW-K(Ac)-Pen(3)-AEF-2Nal-THP-E-N-3Pya-Sar-K(Sar-S-Sar-S-Sar-S-Sar-C14)-CONH2]
8 | < 50 | CC(=O)N(C)CCCC[C@@H]1NC(=O)[C@H](Cc2c[nH]c3c(C)cccc23)NC(=O)[C@H]([C@@H](C)O)NC(=O)[C@H](CC(=O)N(C)C)NC(=O)[C@@H](NC(=O)CCOCCOCCOCCOCCOCCOCCOCCOCCOCCOCCOCCOCCNC(=O)CC[C@H](NC(=O)CCCCCCCCCCCCCCCCCCC(=O)O)C(=O)O)C(C)(C)SSC(C)(C)[C@@H](C(=O)N[C@@H](Cc2ccc(OCCCCC[N+](C)(C)C)cc2)C(=O)N[C@@H](Cc2ccc3ccccc3c2)C(=O)NC2(C(=O)N[C@@H](CCCCN(C)C(C)=O)C(=O)N[C@@H](CC(N)=O)C(=O)N[C@@H](Cc3cccnc3)C(=O)N(C)CC(=O)N(C)C)CCOCC2)NC1=O [compound 94, HOC20gEPEG12CO-Pen(3)-N(N(Me)2)-T-7MeW-K(NMeAc)-Pen(3)-TMAPF-2Nal-THP-K(NMeAc)-N-3Pya-Sar-CON(Me)2] ({C20 diacid-γGlu-PEG12}-[Pen]D(NMe2)T[Trp(7-Me)][Lys(Me)](Ac)[Pen]Y(X1)[2Nal][Thp][Lys(Me)](Ac)N[3Pal][Sar]-NMe2; disulfide 1-6)
